Laboratory results reported in ChEMBL document CHEMBL2203234, “Optimisation of imidazole compounds as selective TAAR1 agonists: discovery of RO5073012” (Bioorg Med Chem Lett, 2012).
pKi: −log10 of the molar value.

How the values were obtained:
[1] = Inhibition of Na+/K+ ATPase at 10 uM by CEREP assay
[2] = molecular target: Type-1 angiotensin II receptor (Homo sapiens) (UniProt P30556); assay: Inhibition of human AT1 receptor at 10 uM by CEREP assay
[3] = molecular target: 5-hydroxytryptamine receptor 1B (Homo sapiens) (UniProt P28222); assay: Inhibition of 5-HT1B receptor at 10 uM by CEREP assay
5-hydroxytryptamine receptor 1B (Homo sapiens), sequence (P28222 whole entry): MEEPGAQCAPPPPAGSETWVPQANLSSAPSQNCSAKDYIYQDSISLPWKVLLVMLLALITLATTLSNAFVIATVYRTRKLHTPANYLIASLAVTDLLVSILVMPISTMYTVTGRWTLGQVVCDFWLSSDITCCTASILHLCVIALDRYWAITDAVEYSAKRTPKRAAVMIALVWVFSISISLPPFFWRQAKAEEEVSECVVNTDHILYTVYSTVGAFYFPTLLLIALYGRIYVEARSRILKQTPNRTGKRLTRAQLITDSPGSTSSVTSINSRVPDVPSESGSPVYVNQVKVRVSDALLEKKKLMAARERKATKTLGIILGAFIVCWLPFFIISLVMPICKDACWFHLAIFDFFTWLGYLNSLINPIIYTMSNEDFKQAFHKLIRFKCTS

[4] = molecular target: Androgen receptor (Homo sapiens) (UniProt P10275); assay: Inhibition of human androgen receptor at 10 uM by CEREP assay
[5] = molecular target: C-C chemokine receptor type 2 (Homo sapiens) (UniProt P41597); assay: Inhibition of human CCR2 receptor at 10 uM by CEREP assay
C-C chemokine receptor type 2 (Homo sapiens), sequence (P41597 whole entry, looked up): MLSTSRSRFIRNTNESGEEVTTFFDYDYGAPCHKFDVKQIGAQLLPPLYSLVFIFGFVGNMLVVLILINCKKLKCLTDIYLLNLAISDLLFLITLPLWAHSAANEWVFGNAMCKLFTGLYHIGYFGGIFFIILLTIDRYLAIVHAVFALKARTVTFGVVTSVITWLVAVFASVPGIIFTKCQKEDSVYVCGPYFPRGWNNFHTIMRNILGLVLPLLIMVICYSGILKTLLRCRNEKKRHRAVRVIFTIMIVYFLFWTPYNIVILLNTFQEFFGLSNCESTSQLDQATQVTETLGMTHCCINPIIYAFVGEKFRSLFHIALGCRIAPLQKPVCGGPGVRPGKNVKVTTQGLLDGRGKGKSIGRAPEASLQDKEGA

[6] = molecular target: 5-hydroxytryptamine receptor 1A (Homo sapiens, UniProt P08908); assay: Inhibition of human 5-HT1A receptor by CEREP assay
5-hydroxytryptamine receptor 1A, sequence (P08908 whole entry): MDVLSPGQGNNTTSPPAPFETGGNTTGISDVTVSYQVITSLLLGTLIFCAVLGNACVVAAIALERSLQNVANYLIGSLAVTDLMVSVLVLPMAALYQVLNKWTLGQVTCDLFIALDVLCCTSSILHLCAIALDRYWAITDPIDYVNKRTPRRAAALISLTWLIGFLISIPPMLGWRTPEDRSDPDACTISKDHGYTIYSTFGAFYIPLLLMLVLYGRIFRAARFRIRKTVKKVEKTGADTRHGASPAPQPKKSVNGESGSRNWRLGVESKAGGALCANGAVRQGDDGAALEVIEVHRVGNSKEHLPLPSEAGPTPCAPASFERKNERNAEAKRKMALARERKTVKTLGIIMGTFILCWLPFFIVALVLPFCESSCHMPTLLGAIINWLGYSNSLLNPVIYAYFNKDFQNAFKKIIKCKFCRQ

[7] = Inhibition of L-type Ca2+ channel diltiazem site at 10 uM by CEREP assay
[8] = molecular target: cGMP-dependent 3',5'-cyclic phosphodiesterase (Homo sapiens) (UniProt O00408); assay: Inhibition of human PDE2 at 10 uM by CEREP assay
[9] = molecular target: C5a anaphylatoxin chemotactic receptor 1 (Homo sapiens) (UniProt P21730); assay: Inhibition of human C5a receptor at 10 uM by CEREP assay
[10] = molecular target: B1 bradykinin receptor (Homo sapiens) (UniProt P46663); assay: Inhibition of human B1 receptor at 10 uM by CEREP assay
[11] = molecular target: Progesterone receptor (Homo sapiens) (UniProt P06401); assay: Inhibition of human progesterone receptor at 10 uM by CEREP assay
Progesterone receptor (Homo sapiens), sequence (P06401 whole entry): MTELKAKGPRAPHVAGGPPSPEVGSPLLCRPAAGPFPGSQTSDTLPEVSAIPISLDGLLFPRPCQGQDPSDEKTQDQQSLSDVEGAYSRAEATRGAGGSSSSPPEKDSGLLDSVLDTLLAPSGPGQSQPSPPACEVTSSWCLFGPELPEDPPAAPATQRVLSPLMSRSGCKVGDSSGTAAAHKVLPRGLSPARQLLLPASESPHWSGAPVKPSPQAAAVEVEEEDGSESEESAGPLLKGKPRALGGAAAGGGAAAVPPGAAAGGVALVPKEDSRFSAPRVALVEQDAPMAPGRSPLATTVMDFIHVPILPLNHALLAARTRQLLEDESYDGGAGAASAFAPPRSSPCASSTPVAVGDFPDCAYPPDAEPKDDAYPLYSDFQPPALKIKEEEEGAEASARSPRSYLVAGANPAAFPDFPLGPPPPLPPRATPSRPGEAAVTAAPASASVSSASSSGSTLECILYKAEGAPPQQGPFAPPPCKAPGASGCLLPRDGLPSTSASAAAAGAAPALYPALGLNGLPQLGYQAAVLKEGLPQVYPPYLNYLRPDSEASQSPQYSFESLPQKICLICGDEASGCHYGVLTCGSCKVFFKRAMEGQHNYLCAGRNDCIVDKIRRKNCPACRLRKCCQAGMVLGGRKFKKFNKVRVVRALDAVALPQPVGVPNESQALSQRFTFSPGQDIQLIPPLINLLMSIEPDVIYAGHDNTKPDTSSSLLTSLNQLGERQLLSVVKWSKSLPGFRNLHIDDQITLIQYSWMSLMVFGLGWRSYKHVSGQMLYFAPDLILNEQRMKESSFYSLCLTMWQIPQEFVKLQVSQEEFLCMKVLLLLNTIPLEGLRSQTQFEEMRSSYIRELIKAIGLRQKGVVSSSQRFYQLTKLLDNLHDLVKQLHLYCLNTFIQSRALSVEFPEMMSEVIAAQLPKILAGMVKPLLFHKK

Homo sapiens = species on record: Homo sapiens; assay: Inhibition of human DOP/delta 2 receptor at 10 uM by CEREP assay
[12] = Inhibition of alpha 2 adrenergic receptor at 10 uM by CEREP assay
[13] = molecular target: Calcitonin gene-related peptide type 1 receptor (Homo sapiens) (UniProt Q16602); assay: Inhibition of human CGRP receptor at 10 uM by CEREP assay
[14] = molecular target: B2 bradykinin receptor (Homo sapiens) (UniProt P30411); assay: Inhibition of human B2 receptor at 10 uM by CEREP assay
[15] = molecular target: Estrogen receptor (Homo sapiens) (UniProt P03372); assay: Inhibition of human estrogen receptor at 10 uM by CEREP assay
[16] = Inhibition of peripheral BZD receptor at 10 uM by CEREP assay
[17] = molecular target: Beta-1 adrenergic receptor (Homo sapiens) (UniProt P08588); assay: Inhibition of human beta 1 adrenergic receptor at 10 uM by CEREP assay
Beta-1 adrenergic receptor (Homo sapiens), sequence (P08588 whole entry, looked up): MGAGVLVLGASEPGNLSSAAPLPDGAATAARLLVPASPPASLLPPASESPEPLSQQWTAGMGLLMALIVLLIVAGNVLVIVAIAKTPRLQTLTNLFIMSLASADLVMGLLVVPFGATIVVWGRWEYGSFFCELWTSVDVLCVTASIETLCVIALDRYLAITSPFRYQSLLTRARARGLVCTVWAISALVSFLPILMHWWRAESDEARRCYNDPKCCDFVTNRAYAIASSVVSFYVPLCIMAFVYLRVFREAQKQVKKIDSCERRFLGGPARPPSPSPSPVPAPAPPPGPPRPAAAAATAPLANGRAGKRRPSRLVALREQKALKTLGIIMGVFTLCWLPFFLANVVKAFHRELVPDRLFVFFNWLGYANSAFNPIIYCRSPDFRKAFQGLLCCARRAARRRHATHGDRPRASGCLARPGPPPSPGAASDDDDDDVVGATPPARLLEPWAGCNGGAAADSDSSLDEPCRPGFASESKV

[18] = Cmax in rat at 10 mg/kg, po; format: ADME, organism-based; parameters: dose 10 mg/kg, route oral; conditions: in vivo
[19] = molecular target: Phosphodiesterase 4 (Homo sapiens) (UniProt P27815+Q08499+Q07343+Q08493); assay: Inhibition of human PDE4 at 10 uM by CEREP assay; format: protein assay
[20] = molecular target: Leukotriene B4 receptor 1 (Homo sapiens) (UniProt Q15722); assay: Inhibition of human LTB4 receptor at 10 uM by CEREP assay
Leukotriene B4 receptor 1 (Homo sapiens), sequence (Q15722 whole entry): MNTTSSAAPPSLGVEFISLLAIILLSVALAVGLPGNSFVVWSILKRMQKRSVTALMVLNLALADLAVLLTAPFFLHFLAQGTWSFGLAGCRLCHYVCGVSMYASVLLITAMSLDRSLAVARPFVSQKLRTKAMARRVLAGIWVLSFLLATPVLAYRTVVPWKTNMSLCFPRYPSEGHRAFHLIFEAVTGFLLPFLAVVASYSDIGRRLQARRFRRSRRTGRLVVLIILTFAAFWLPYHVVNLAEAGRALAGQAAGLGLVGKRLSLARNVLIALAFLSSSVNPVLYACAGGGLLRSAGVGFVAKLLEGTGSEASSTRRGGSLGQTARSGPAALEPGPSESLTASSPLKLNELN

[21] = molecular target: Sodium-dependent noradrenaline transporter (Homo sapiens) (UniProt P23975); assay: Inhibition of human NE transporter at 10 uM by CEREP assay
[22] = Inhibition of PDE1 at 10 uM by CEREP assay
[23] = molecular target: Mu-type opioid receptor (Homo sapiens) (UniProt P35372); assay: Inhibition of human MOP receptor at 10 uM by CEREP assay
[24] = molecular target: Melanocortin receptor 4 (Homo sapiens) (UniProt P32245); assay: Inhibition of human MC4 receptor at 10 uM by CEREP assay
Melanocortin receptor 4 (Homo sapiens), sequence (P32245 whole entry): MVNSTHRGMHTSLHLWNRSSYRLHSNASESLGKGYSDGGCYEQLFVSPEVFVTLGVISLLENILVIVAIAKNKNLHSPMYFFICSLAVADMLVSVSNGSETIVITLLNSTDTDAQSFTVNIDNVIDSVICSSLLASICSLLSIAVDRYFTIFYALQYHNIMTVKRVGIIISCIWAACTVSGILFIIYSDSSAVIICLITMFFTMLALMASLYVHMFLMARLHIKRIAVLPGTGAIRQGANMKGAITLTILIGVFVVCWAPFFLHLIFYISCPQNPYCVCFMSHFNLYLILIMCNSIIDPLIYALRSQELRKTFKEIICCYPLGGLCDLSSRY

[25] = molecular target: Growth hormone secretagogue receptor type 1 (Homo sapiens) (UniProt Q92847); assay: Inhibition of human Ghrelin receptor at 10 uM by CEREP assay
Growth hormone secretagogue receptor type 1 (Homo sapiens), sequence (Q92847 whole entry): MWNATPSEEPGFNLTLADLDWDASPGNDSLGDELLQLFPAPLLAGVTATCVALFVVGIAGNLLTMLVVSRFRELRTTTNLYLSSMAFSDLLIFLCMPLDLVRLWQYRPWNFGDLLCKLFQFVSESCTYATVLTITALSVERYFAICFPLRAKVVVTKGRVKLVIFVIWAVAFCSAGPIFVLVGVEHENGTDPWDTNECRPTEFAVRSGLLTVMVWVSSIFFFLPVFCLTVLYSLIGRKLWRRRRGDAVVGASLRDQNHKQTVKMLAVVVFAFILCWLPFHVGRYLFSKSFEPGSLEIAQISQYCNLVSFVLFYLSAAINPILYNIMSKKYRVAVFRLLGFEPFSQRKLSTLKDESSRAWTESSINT

[26] = molecular target: Neuronal acetylcholine receptor; alpha4/beta2 (Homo sapiens) (UniProt P17787+P43681); assay: Inhibition of neuronal alpha4beta2 nAChR at 10 uM by CEREP assay; format: protein-complex assay
[27] = molecular target: 5-hydroxytryptamine receptor 2A (Homo sapiens) (UniProt P28223); assay: Inhibition of human 5-HT2A receptor at 10 uM by CEREP assay
5-hydroxytryptamine receptor 2A (Homo sapiens), sequence (P28223 whole entry): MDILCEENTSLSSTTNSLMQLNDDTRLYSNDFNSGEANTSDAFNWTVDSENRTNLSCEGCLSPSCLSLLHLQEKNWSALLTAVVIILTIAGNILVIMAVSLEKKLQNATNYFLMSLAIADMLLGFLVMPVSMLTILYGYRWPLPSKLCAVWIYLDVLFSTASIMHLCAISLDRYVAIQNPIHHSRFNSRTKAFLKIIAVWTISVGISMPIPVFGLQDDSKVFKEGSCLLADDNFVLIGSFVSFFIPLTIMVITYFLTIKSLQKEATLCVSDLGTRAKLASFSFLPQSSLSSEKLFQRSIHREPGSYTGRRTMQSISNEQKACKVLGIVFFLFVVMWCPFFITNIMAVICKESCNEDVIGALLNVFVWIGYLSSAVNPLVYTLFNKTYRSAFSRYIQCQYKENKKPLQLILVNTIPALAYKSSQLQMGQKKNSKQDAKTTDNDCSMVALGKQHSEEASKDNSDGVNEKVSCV

[28] = molecular target: Muscarinic acetylcholine receptor M5 (Homo sapiens) (UniProt P08912); assay: Inhibition of human M5 receptor at 10 uM by CEREP assay
[29] = molecular target: Histamine H2 receptor (Homo sapiens) (UniProt P25021); assay: Inhibition of human H2 receptor at 10 uM by CEREP assay
[30] = molecular target: Galanin receptor type 2 (Homo sapiens) (UniProt O43603); assay: Inhibition of human GAL2 receptor at 10 uM by CEREP assay
[31] = molecular target: cGMP-specific 3',5'-cyclic phosphodiesterase (Canis lupus familiaris) (UniProt O77746); assay: Inhibition of human PDE5 at 10 uM by CEREP assay
[32] = Half life in mouse at 7.1 mg/kg, po; format: ADME, organism-based; parameters: dose 7.1 mg/kg, route oral; conditions: in vivo
[33] = molecular target: Corticotropin-releasing factor receptor 1 (Homo sapiens) (UniProt P34998); assay: Inhibition of human CRF1 receptor at 10 uM by CEREP assay
CHL = assay: Selectivity ratio of Ki for human adrenergic alpha2A receptor expressed in CHL cells to Ki for human TAAR1 receptor; format: cell-based
[34] = molecular target: 5-hydroxytryptamine receptor 3A (Homo sapiens) (UniProt P46098); assay: Inhibition of human 5-HT3 receptor at 10 uM by CEREP assay
[35] = Inhibition of K-ATP channel at 10 uM by CEREP assay
[36] = molecular target: Cysteinyl leukotriene receptor 1 (Homo sapiens) (UniProt Q9Y271); assay: Inhibition of human LTD4 receptor at 10 uM by CEREP assay
[37] = molecular target: Thyrotropin-releasing hormone receptor (Homo sapiens) (UniProt P34981); assay: Inhibition of TRH receptor at 10 uM by CEREP assay
[38] = molecular target: Sodium-dependent dopamine transporter (Homo sapiens) (UniProt Q01959); assay: Inhibition of human DA transporter at 10 uM by CEREP assay
[39] = Inhibition of GABA receptor at 10 uM by CEREP assay
[40] = molecular target: Melanocyte-stimulating hormone receptor (Homo sapiens) (UniProt Q01726); assay: Inhibition of MC1 receptor at 10 uM by CEREP assay
[41] = molecular target: Neurotensin receptor type 1 (Homo sapiens) (UniProt P30989); assay: Inhibition of human NT1 receptor at 10 uM by CEREP assay
Neurotensin receptor type 1 (Homo sapiens), sequence (P30989 whole entry): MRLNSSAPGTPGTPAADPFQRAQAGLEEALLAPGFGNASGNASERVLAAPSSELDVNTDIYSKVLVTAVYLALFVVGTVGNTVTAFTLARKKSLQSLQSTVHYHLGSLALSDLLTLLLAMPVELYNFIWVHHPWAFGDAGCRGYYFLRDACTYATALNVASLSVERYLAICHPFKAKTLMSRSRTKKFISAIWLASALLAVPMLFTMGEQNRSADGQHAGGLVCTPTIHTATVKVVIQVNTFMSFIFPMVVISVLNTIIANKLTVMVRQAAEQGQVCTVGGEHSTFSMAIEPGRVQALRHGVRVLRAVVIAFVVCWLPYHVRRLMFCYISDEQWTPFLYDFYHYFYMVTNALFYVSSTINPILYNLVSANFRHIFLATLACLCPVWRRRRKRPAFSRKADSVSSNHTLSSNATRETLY

[42] = molecular target: Vasoactive intestinal polypeptide receptor 1 (Homo sapiens) (UniProt P32241); assay: Inhibition of human VIP1 receptor at 10 uM by CEREP assay
[43] = molecular target: Nociceptin receptor (Homo sapiens) (UniProt P41146); assay: Inhibition of human ORL1 receptor at 10 uM by CEREP assay
Nociceptin receptor (Homo sapiens), sequence (P41146 whole entry): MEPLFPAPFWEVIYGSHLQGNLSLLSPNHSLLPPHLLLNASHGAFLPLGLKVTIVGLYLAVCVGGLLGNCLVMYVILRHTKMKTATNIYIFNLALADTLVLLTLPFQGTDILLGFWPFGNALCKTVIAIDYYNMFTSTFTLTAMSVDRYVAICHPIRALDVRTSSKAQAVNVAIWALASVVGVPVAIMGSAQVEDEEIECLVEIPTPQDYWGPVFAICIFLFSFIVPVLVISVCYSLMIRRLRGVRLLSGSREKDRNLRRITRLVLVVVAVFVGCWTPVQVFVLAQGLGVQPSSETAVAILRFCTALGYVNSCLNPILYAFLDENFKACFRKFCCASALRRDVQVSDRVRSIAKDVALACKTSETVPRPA

For `CCc1cccc(CC)c1Cc1ncc[nH]1`, which inhibition [1] is on record?
The inhibition was -1%.

What about the inhibition [2] of the same compound?
The inhibition was 2%.

What about the inhibition [3] of the same compound?
The inhibition was 18%.

What about the inhibition [4] of the same compound?
Its inhibition is 2%.

And the inhibition [5]?
The inhibition was 12%.

What about the pKi [6] of the same compound?
Its pKi is 5.89.

And the inhibition [7]?
The inhibition was 34%.

And the inhibition [8]?
Its inhibition is -5%.

And the inhibition [9]?
The inhibition was -8%.

And the inhibition [10]?
Its inhibition is -6%.

What about the inhibition [11] of the same compound?
The inhibition was -2%.

And the inhibition (Homo sapiens)?
The inhibition was 7%.

And the inhibition [12]?
The inhibition was 73%.

And the inhibition [13]?
The inhibition was -5%.

What about the inhibition [14] of the same compound?
The inhibition was 3%.

And the inhibition [15]?
The inhibition was -4%.

What about the inhibition [16] of the same compound?
The inhibition was 1%.

And the inhibition [17]?
The inhibition was 5%.

What about the Cmax [18] of the same compound?
The Cmax was 100 ng/mL.

What about the inhibition [19] of the same compound?
The inhibition was -2%.

And the inhibition [20]?
The inhibition was 5%.

What about the inhibition [21] of the same compound?
The inhibition was -1%.

And the inhibition [22]?
Its inhibition is 7%.

What about the inhibition [23] of the same compound?
Its inhibition is 8%.

And the inhibition [24]?
Its inhibition is -4%.

And the inhibition [25]?
The inhibition was 3%.

And the inhibition [26]?
The inhibition was 7%.

What about the inhibition [27] of the same compound?
The inhibition was -5%.

What about the inhibition [28] of the same compound?
The inhibition was 8%.

What about the inhibition [29] of the same compound?
The inhibition was 4%.

What about the inhibition [30] of the same compound?
Its inhibition is 4%.

And the inhibition [31]?
Its inhibition is 5%.

And the half-life [32]?
Its half-life is 57 min.

What about the inhibition [33] of the same compound?
The inhibition was -4%.

What about the Ratio Ki (CHL) of the same compound?
Its Ratio Ki is 100.

What about the inhibition [34] of the same compound?
The inhibition was -6%.

And the inhibition [35]?
The inhibition was 7%.

And the inhibition [36]?
Its inhibition is 1%.

And the inhibition [37]?
The inhibition was 0%.

And the inhibition [38]?
Its inhibition is 0%.

And the inhibition [39]?
The inhibition was -10%.

What about the inhibition [40] of the same compound?
The inhibition was 2%.

And the inhibition [41]?
Its inhibition is -3%.

And the inhibition [42]?
The inhibition was 1%.

And the inhibition [43]?
Its inhibition is -3%.
